Read-outs that look alike come from different tables or passages of the source. Marks after values point to notes of the source that are not given here.
Experiments:
[1] = test system: methicillin-resistant Staphylococcal aureus; details: 5 test animals
Staphylococci = test: Antibiotic-sensitivity of staphylococci from skin lesions (MIC, series cultivation); format: cell-based
Description: Staphylococci extracted from dermal lesions were initially sensitive to 10 of the 15 antibiotics being assayed (Table 25).

[2] = test system: Mycobacterium tuberculosis; details: in vivo
[3] = staphylococci from patients After IM862
[4] = staphylococci from patients Before IM862

## CC1(C)S[C@@H]2[C@H](NC(=O)[C@H](N)c3ccccc3)C(=O)N2[C@H]1C(=O)O [Ampicillin, reference compound]
[1]; 100 mg/kg Ampicillin, pre-treated with normal saline i.p.
  Survivors: no survivors
[1]; Group 1: IM862 control (0) pretreatment, ampicillin 100 mg/kg 1 hr after inoculation, 72 hours
  Percent ip Survivors: 0%
[1]; Group 1: IM862 control (0) pretreatment, ampicillin 100 mg/kg 1 hr after inoculation, survivors at 72 hours
  Survivors: 0
Staphylococci; [3]
  MIC g/ml: 2.64 ± 0.60^yy g/ml
Staphylococci; [4]
  MIC g/ml: 8.10 ± 0.49^x g/ml

## Cc1nnc(SCC2=C(C(=O)O)N3C(=O)[C@@H](NC(=O)Cn4cnnn4)[C@H]3SC2)s1 [Cefamezin]
Staphylococci; [3]
  MIC g/ml: 1.33 ± 0.53^yy g/ml

## NC[C@H]1O[C@H](O[C@H]2[C@H](O)[C@@H](O[C@H]3O[C@H](CO)[C@@H](O)[C@H](N)[C@H]3O)[C@H](N)C[C@@H]2N)[C@H](O)[C@@H](O)[C@@H]1O [Kanamycin]
Staphylococci; [3]
  MIC g/ml: 2.09 ± 0.54^yy g/ml
Staphylococci; [4]
  MIC g/ml: 6.32 ± 0.58^x g/ml

## CC(=O)OCC1=C(C(=O)O)N2C(=O)[C@@H](NC(=O)Cc3cccs3)[C@H]2SC1 [Keflin]
Staphylococci; [3]
  MIC g/ml: 1. ± 0.69^y g/ml

## Cc1nnc(SCC2=C(C(=O)O)N3C(=O)[C@@H](NC(=O)Cn4cnnn4)[C@H]3SC2)s1 [Kefzol]
Staphylococci; [3]
  MIC g/ml: 1.86 ± 0.93^y g/ml

## O=C(N[C@H](CO)[C@H](O)c1ccc([N+](=O)[O-])cc1)C(Cl)Cl [Levomicetin]
Staphylococci; [3]
  MIC g/ml: 4.58 ± 0.67^yy g/ml
Staphylococci; [4]
  MIC g/ml: 9.17 ± 0.36^x g/ml

## Cc1onc(-c2ccccc2)c1C(=O)N[C@@H]1C(=O)N2[C@@H]1SC(C)(C)[C@@H]2C(=O)O [Oxycillin]
Staphylococci; [3]
  MIC g/ml: 1.56 ± 0.45^yy g/ml
Staphylococci; [4]
  MIC g/ml: 5.11 ± 0.63^x g/ml

## [H]/N=C(/N)N[C@H]1[C@H](O)[C@@H](O)[C@H](O[C@@H]2O[C@@H](C)[C@](O)(C=O)[C@H]2O[C@@H]2O[C@@H](CO)[C@H](O)[C@@H](O)[C@@H]2NC)[C@@H](N/C(N)=N\[H])[C@@H]1O [Streptomycin]
Staphylococci; [3]
  MIC g/ml: 3.39 ± 0.66^yy g/ml
Staphylococci; [4]
  MIC g/ml: 6.71 ± 0.59^x g/ml

## c1ccc([C@H]2CN3CCSC3=N2)cc1 [decaris, reference compound]
[2]
  disintegration cavities closed, number of patients: 10 patients
  improvement, number of patients: 18
  no improvement, number of patients: 3 patients
  significant improvement, number of patients: only one case

## Gentamycin
Staphylococci; [3]
  MIC g/ml: 1.32 ± 0.49^yy g/ml
Staphylococci; [4]
  MIC g/ml: 5.47 ± 0.92^x g/ml

## Penicillin
Staphylococci; [3]
  MIC g/ml: 2.52 ± 0.70^yy g/ml
Staphylococci; [4]
  MIC g/ml: 9.45 ± 0.28^x g/ml
